Assay results: PMC12331936, “Structural Insights into the Protein Mannosyltransferase from Mycobacterium tuberculosis reveal a WW-Domain-Like Protein Motif in Bacteria” (Communications Biology, 2025)

Experiments:
R441A MtPMT = assay type: cell-based, M. tuberculosis

| Structure (SMILES) | restored FasC mannosylation, level of the wild type MtPMT (R441A MtPMT) | chemical complementation of inactive D176A mutant (D176A MtPMT) | chemical complementation of inactive D74A mutant (D74A MtPMT) |
| --- | --- | --- | --- |
| Cl.N=C(N)N [guanidine chloride, guanidine hydrochloride] | ~ 25 ± 5% | – | – |
| c1c[nH]cn1 [imidazole] | ~ 25 ± 5% | – | – |
| CC(=O)[O-].[Na+] [sodium acetate] | – | ineffective | ineffective |
| [N-]=[N+]=[N-].[Na+] [sodium azide] | – | ineffective | ineffective |
